# Biological target: T1, GABA A receptor α5β3γ2 (hα5) (Homo sapiens, UniProt P18507+P31644)
# T1 construct: expressed in transfected cells; host or cells: HEK293 (transiently transfected), membrane preparation
# Assay: [3H]flumazenil competition binding assay, human GABA A α5β3γ2
# Details: displacement of [3H]flumazenil (0.5 nM) from HEK293 cell membranes expressing α5β3γ2; means of two determinations; read-out: Ki[nM] hα5
# Description: The affinity of compounds at GABA A receptor subtypes was measured by competition for [3H]flumazenil (85 Ci/mmol; Roche) binding to HEK293 cells expressing rat (stably transfected) or human (transiently transfected) receptors of composition α1β3γ2, α2β3γ2, α3β3γ2 and α5β3γ2.
# Cell pellets were suspended in Krebs-tris buffer (4.8 mM KCl, 1.2 mM CaCl2, 1.2 mM MgCl2, 120 mM NaCl, 15 mM Tris; pH 7.5; binding assay buffer), homogenized by polytron for ca. 20 sec on ice and centrifuged for 60 min at 4° C. (50000 g; Sorvall, rotor: SM24=20000 rpm). The cell pellets were resuspended in Krebs-tris buffer and homogenized by polytron for ca. 15 sec on ice. Protein was measured (Bradford method, Bio-Rad) and aliquots of 1 mL were prepared and stored at −80° C.
# Radioligand binding assays were carried out in a volume of […] (96-well plates) which contained […] of cell membranes, [3H]flumazenil at a concentration of 1 nM for α1, α2, α3 subunits and 0.5 nM for α5 subunits and the test compound in the range of […]. Nonspecific binding was defined by 10^−5 M diazepam and typically represented less than 5% of the total binding. Assays were incubated to equilibrium for 1 hour at 4° C. and harvested onto GF/C uni-filters (Packard) by filtration using a Packard harvester and washing with ice-cold wash buffer (50 mM Tris; pH 7.5). After drying, filter-retained radioactivity was detected by liquid scintillation counting. Ki values were calculated using Excel-Fit (Microsoft) and are the means of two determinations.
row,Compound,Ki
1,"Cc1onc(-c2ccccc2)c1-c1cn(-c2cccc(C#N)c2)cn1 [Example 17, 3-[4-(5-Methyl-3-phenyl-isoxazol-4-yl)-imidazol-1-yl]-benzonitrile]",27 nM
2,"Cc1onc(-c2ccccc2)c1-c1cn(-c2ccc([N+](=O)[O-])cc2)c(COCc2ccc(C(F)(F)F)nc2)n1 [Example 164, 5-[4-(5-Methyl-3-phenyl-isoxazol-4-yl)-1-(4-nitro-phenyl)-1H-imidazol-2-ylmethoxymethyl]-2-trifluoromethyl-pyridine]",27 nM
3,"Cc1onc(-c2ccccc2)c1-c1cn(-c2cccc([N+](=O)[O-])c2)cn1 [Example 82, 5-Methyl-4-[1-(3-nitro-phenyl)-1H-imidazol-4-yl]-3-phenyl-isoxazole]",19.5 nM
4,"CCOc1ccc(-n2cnc(-c3c(-c4ccccc4)noc3C)c2)cc1 [Example 19, 4-[1-(4-Ethoxy-phenyl)-1H-imidazol-4-yl]-5-methyl-3-phenyl-isoxazole]",28.7 nM
5,"Cc1onc(-c2ccc(F)cc2)c1-c1cn(-c2ccc(F)cc2)cn1 [Example 114, 3-(4-Fluoro-phenyl)-4-[1-(4-fluoro-phenyl)-1H-imidazol-4-yl]-5-methyl-isoxazole]",31 nM
6,"Cc1onc(-c2ccc(F)cc2)c1-c1cn(-c2cccc(C#N)c2)cn1 [Example 122, 3-{4-[3-(4-Fluoro-phenyl)-5-methyl-isoxazol-4-yl]-imidazol-1-yl}-benzonitrile]",25.6 nM
7,"Cc1onc(-c2ccccc2)c1-c1cn(-c2ccccc2)cn1 [Example 2, 5-Methyl-3-phenyl-4-(1-phenyl-1H-imidazol-4-yl)-isoxazole]",21.7 nM

# Now those with a lower Ki, led by results:
row,Ki,Compound
1,2.7 nM,"Cc1onc(-c2ccccc2)c1-c1cn(-c2ccc(C(=O)NC3CCC3)cc2)cn1 [Example 75, N-Cyclobutyl-4-[4-(5-methyl-3-phenyl-isoxazol-4-yl)-imidazol-1-yl]-benzamide]"
2,5.4 nM,"CC(=O)c1ccc(-n2cc(-c3c(-c4ccccc4)noc3C)nc2COCc2ccccc2)cc1 [Example 62, 1-{4-[2-Benzyloxymethyl-4-(5-methyl-3-phenyl-isoxazol-4-yl)-imidazol-1-yl]-phenyl}-ethanone]"
3,13.6 nM,"COC(=O)c1ccc(-n2cnc(-c3c(-c4ccc(F)cc4)noc3C)c2)cc1 [Example 125, 4-{4-[3-(4-Fluoro-phenyl)-5-methyl-isoxazol-4-yl]-imidazol-1-yl}-benzoic acid methyl ester]"
4,17 nM,"Cc1onc(-c2ccccc2)c1-c1cn(-c2ccc([N+](=O)[O-])cc2)c(COCc2cccc(F)c2)n1 [Example 158, 4-[2-(3-Fluoro-benzyloxymethyl)-1-(4-nitro-phenyl)-1H-imidazol-4-yl]-5-methyl-3-phenyl-isoxazole]"
5,13.3 nM,"Cc1onc(-c2ccc(F)cc2)c1-c1cn(-c2ccncc2)cn1 [Example 117, 4-{4-[3-(4-Fluoro-phenyl)-5-methyl-isoxazol-4-yl]-imidazol-1-yl}-pyridine]"
6,18.2 nM,"Cc1onc(-c2ccccc2)c1-c1cn(-c2ccc([N+](=O)[O-])cc2)c(COCc2ccncc2)n1 [Example 165, 4-[4-(5-Methyl-3-phenyl-isoxazol-4-yl)-1-(4-nitro-phenyl)-1H-imidazol-2-ylmethoxymethyl]-pyridine]"
7,15.1 nM,"COC(=O)c1cccc(-n2cnc(-c3c(-c4ccccc4)noc3C)c2)c1 [Example 11, 3-[4-(5-Methyl-3-phenyl-isoxazol-4-yl)-imidazol-1-yl]-benzoic acid methyl ester]"
8,5.5 nM,"CC(=O)c1ccc(-n2cnc(-c3c(-c4ccccc4)noc3C)c2)cc1 [Example 12, 1-{4-[4-(5-Methyl-3-phenyl-isoxazol-4-yl)-imidazol-1-yl]-phenyl}-ethanone]"
9,1.64 nM,"CC(=O)c1ccc(-n2cnc(-c3c(-c4ccccc4)noc3C3CC3)c2)cc1 [Example 135, 1-{4-[4-(5-Cyclopropyl-3-phenyl-isoxazol-4-yl)-imidazol-1-yl]-phenyl}-ethanone]"

# Reference: patent US7414061B2, “Aryl-isoxazol-4-yl-imidazole derivatives” (Hoffmann-La Roche Inc., priority 2005, dated 2008)
